Measurements from publication PMC7248426 (Translational Oncology, 2020).

Assays:
[1] = tested on: gastric cancer cells including AGS, SNU216, and SNU638; test: L20 peptide binding to gastric cancer cells; format: cell-based; settings: Figure 1D
CCD841 cells = test: FITC-labeled peptide immunofluorescence assay, control cells; format: cell-based, human; settings: fluorescein-labeled peptide, 10 μM, 1 hour at RT, Figure 1B
five colon cancer cells = test: FITC-labeled peptide immunofluorescence assay, colon cancer cells; format: cell-based, human; settings: fluorescein-labeled peptide, 10 μM, 1 hour at RT, Figure 1B
[2] = tested on: five colon cancer cell lines; test: Flow cytometry; format: cell-based, human; settings: FITC-L20 10 μM, 1 hour at RT, all colon cancer cells, Figure 1C

Sequence: ANLNLWTDYIRW [L20 peptide]
- fluorescence in gastric cancer cell lines compared to the control cells [1]: did not show higher fluorescence
- fluorescence on the control cell line (CCD841 cells): negligible
- fluorescence on colon cancer cells (five colon cancer cells): very intense fluorescence
- FACS fluorescence compared to the control peptide [2]: right shift of fluorescence
